Like-named read-outs stand apart in the source and are kept apart here.
Experiments:
[1] = 14-membered ring
[2] = molecular target: T1, CFTR (F508del/MF-HBE cells) (Homo sapiens, UniProt P13569, DEL508-508); test: Ussing chamber assay of CFTR-mediated short-circuit currents (potentiator identification); format: cell-based; settings: CFTR-mediated Isc, 18-24 h incubation at 37° C. with 10 μM (14S)-8-[3-(2-{dispiro[2.0.2.1]heptan-7-yl}ethoxy)-1H-pyrazol-1-yl]-... corrector, 20% human serum
T1 construct: human bronchial epithelial (HBE) cells derived from CF subjects heterozygous for F508del and a minimal function CFTR mutation (F508del/MF-HBE); endogenous in cells; host or cells: primary human bronchial epithelial (HBE) cells from CF subjects, genotype F508del/minimal function
T1 sequence (P13569 with tags, fused parts or gaps DEL508-508): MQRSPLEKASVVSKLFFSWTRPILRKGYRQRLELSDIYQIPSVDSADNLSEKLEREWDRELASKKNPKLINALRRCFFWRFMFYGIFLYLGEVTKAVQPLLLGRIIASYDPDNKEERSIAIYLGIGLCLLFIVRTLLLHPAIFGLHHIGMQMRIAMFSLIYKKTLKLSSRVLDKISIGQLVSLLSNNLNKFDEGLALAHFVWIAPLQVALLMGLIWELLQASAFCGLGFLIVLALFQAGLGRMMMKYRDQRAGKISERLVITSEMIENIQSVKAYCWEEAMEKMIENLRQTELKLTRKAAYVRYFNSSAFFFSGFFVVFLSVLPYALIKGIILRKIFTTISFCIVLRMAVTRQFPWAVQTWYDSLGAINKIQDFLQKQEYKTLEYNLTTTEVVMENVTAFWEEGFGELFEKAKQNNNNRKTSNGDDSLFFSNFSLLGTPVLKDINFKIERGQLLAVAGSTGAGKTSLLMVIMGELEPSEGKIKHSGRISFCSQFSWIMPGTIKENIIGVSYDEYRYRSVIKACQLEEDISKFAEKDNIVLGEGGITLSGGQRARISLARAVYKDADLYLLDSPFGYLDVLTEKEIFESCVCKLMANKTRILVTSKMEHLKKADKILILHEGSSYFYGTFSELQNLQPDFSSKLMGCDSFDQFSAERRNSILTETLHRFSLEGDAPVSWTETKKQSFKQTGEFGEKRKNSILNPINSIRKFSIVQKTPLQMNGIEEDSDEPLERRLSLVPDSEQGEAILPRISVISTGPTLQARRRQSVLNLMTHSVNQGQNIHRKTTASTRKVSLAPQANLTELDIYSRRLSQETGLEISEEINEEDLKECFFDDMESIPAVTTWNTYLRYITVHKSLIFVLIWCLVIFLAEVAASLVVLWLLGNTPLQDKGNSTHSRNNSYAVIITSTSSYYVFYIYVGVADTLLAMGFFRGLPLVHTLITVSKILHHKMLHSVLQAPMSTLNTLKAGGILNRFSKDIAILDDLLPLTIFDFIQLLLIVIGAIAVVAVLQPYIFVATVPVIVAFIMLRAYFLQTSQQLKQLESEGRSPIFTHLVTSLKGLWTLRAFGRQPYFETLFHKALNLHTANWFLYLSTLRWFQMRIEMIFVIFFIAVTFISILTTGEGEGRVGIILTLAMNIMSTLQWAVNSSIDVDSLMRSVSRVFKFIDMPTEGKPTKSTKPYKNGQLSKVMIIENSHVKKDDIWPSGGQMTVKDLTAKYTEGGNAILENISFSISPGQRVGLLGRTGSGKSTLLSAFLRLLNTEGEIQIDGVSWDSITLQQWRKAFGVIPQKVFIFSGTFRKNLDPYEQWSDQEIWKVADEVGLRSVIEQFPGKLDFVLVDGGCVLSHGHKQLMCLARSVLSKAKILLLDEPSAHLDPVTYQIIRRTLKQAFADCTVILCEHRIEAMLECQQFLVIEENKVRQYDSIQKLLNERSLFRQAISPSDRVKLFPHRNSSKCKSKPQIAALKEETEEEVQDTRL
Description: Ussing Chamber Assay of CFTR-Mediated Short-Circuit Currents
Ussing chamber experiments were performed using human bronchial epithelial (HBE) cells derived from CF subjects heterozygous for F508del and a minimal function CFTR mutation (F508del/MF-HBE) and cultured as previously described (Neuberger T, Burton B, Clark H, Van Goor F Methods Mol Biol 2011:741:39-54). After four days the apical media was removed, and the cells were grown at an air liquid interface for >14 days prior to use.
To isolate the CFTR-mediated short-circuit (Isc) current, F508del/MF-HBE grown on Costar® Snapwell™ cell culture inserts were mounted in an Ussing chamber and the transepithelial ISC was measured under voltage-clamp recording conditions (Vhold=0 mV) at 37° C. The basolateral solution contained (in mM) 145 NaCl, 0.83 K2HPO4, 3.3 KH2PO4, 1.2 MgCl2, 1.2 CaCl2, 10 Glucose, 10 HEPES (pH adjusted to 7.4 with NaOH) and the apical solution contained (in mM) 145 NaGluconate, 1.2 MgCl2, 1.2 CaCl2, 10 glucose, 10 HEPES (pH adjusted to 7.4 with NaOH) and 30 μM amiloride to block the epithelial sodium channel. Forskolin (20 μM) was added to the apical surface to activate CFTR, followed by apical addition of a CFTR inhibitor cocktail consisting of BPO, GlyH-101 and CFTR inhibitor 172 (each at 20 μM final assay concentration) to specifically isolate CFTR currents. The CFTR-mediated Isc (μA/cm^2) for each condition was determined from the peak forskolin response to the steady-state current following inhibition.
Identification of Potentiator Compounds
The activity of the CFTR potentiator compounds on the CFTR-mediated Isc was determined in Ussing chamber studies as described above. The F508del/MF-HBE cell cultures were incubated with the potentiator compounds at a range of concentrations in combination with 10 μM (14S)-8-[3-(2-{dispiro[2.0.2.1]heptan-7-yl}ethoxy)-1H-pyrazol-1-yl]-12,12-dimethyl-2λ^6-thia-3,9,11,18,23-pentaazatetracyclo[17.3.1.111,14.05,10]tetracosa-1(22),5,7,9,19(23),20-hexaene-2,2,4-trione for 18-24 hours at 37° C. and in the presence of 20% human serum. The concentration of potentiator compounds and (14S)-8-[3-(2-{dispiro[2.0.2.1]heptan-7-yl}ethoxy)-1H-pyrazol-1-yl]-12,12-dimethyl-2λ^6-thia-3,9,11,18,23-pentaazatetracyclo[17.3.1.111,14.05,10]tetracosa-1(22),5,7,9,19(23),20-hexaene-2,2,4-trione used during the 18-24 hours incubations was kept constant throughout the Ussing chamber measurement of the CFTR-mediated Isc to ensure compounds were present throughout the entire experiment. The efficacy and potency of the putative F508del potentiators was compared to that of the known Vertex potentiator, ivacaftor (N-[2,4-bis(1,1-dimethylethyl)-5-hydroxyphenyl]-1,4-dihydro-4-oxoquinoline-3-carboxamide).

## CC(C)(C)OC(=O)N(C(=O)OC(C)(C)C)c1cc(C(F)(F)F)c2nc1-c1nnc(o1)[C@@](OCc1ccccc1)(C(F)(F)F)CCC=CCC(Cc1ccc(F)cc1)O2 (mixture of isomers)
[1]; from C=CCC[C@@](OCc1ccccc1)(c1nnc(-c2nc(OC(CC=C)Cc3ccc(F)cc3)c(C(F)(F)F)cc2N(C(=O)OC(C)(C)C)C(=O)OC(C)(C)C)o1)C(F)(F)F, rcm bond, Zhan-1B, DCE, 2.35 mM, 60.0 °C, 1.0 h
  ring closure, isolated yield: 63%

## C[C@H]1Oc2nc(c(NC(=O)OC(C)(C)C)cc2C(F)(F)F)C2=NN=C(O2)[C@@](OCc2ccccc2)(C(F)(F)F)CC=CCC1OCc1ccccc1 (mixture of isomers)
[1]; from C=CCC(OCc1ccccc1)[C@@H](C)Oc1nc(-c2nnc([C@@](CC=C)(OCc3ccccc3)C(F)(F)F)o2)c(NC(=O)OC(C)(C)C)cc1C(F)(F)F, rcm bond, Zhan-1B, DCE, 6.94 mM, 70.0 °C, 48.0 h
  ring closure, isolated yield: 56%

## C[C@@H]1CCOCCC(OCc2ccccc2)(C(F)(F)F)C2=NN=C(O2)c2nc(c(C(F)(F)F)cc2N(C(=O)OC(C)(C)C)C(=O)OC(C)(C)C)O1 (stereo partly shown)
[1]; from C[C@H](O)CCOCCC(OCc1ccccc1)(c1nnc(-c2nc(O)c(C(F)(F)F)cc2N(C(=O)OC(C)(C)C)C(=O)OC(C)(C)C)o1)C(F)(F)F, ether bond, PPh3/DIAD, toluene, 10.2 mM, 7.0 h
  ring closure, isolated yield: 57%

## C[C@H]1CC=CCC[C@](OCc2ccccc2)(C(F)(F)F)C2=NN=C(O2)c2nc(c(C(F)(F)F)cc2NC(=O)OC(C)(C)C)O1 (mixture of isomers)
[1]; from C=CCC[C@@](OCc1ccccc1)(c1nnc(-c2nc(O[C@@H](C)CC=C)c(C(F)(F)F)cc2NC(=O)OC(C)(C)C)o1)C(F)(F)F, rcm bond, Hoveyda-Grubbs II, toluene, 5.08 mM, 100.0 °C, 1.0 h
  ring closure, isolated yield: 22%

## CC(C)(C)OC(=O)N(C(=O)OC(C)(C)C)c1cc(C(F)(F)F)c2nc1-c1nnc(o1)[C@@](OCc1ccccc1)(C(F)(F)F)CCC=CC[C@@H](COCc1ccccc1)O2 (mixture of isomers)
[1]; from C=CCC[C@@](OCc1ccccc1)(c1nnc(-c2nc(O[C@@H](CC=C)COCc3ccccc3)c(C(F)(F)F)cc2N(C(=O)OC(C)(C)C)C(=O)OC(C)(C)C)o1)C(F)(F)F, rcm bond, Zhan-1B, DCE, 2.78 mM, 60.0 °C, 5.5 h
  ring closure, isolated yield: 45%

## C[C@@H]1CC=CCC[C@](OCc2ccccc2)(C(F)(F)F)C2=NN=C(O2)c2nc(c(C(F)(F)F)cc2Cl)O1 (mixture of isomers)
[1]; from C=CCC[C@@](OCc1ccccc1)(c1nnc(-c2nc(O[C@H](C)CC=C)c(C(F)(F)F)cc2Br)o1)C(F)(F)F, rcm bond, Zhan-1B, DCE, 2.2 mM, 60.0 °C, 2.0 h
  ring closure, isolated yield: 47%

## C[C@@H]1COCCC[C@](OCc2ccccc2)(C(F)(F)F)C2=NN=C(O2)c2nc(c(C(F)(F)F)cc2N(C(=O)OC(C)(C)C)C(=O)OC(C)(C)C)O1
[1]; from tert-butyl N-[2-[5-[(1R)-1-benzyloxy-4-[(25)-2-hydroxypropoxy]-1-(trifluoromethyl)butyl]-1,3,4-oxadiazol-2-yl]-6-hydroxy-5-(trifluoromethyl)-3-pyridyl]-N-tert-butoxycarbonyl-carbamate, ether bond, PPh3/DIAD, THF, 15.0 mM
  ring closure, isolated yield: 50%

## CC(C)(C)OC(=O)Nc1cc(C(F)(F)F)c2nc1-c1nnc(o1)C(OCc1ccccc1)(C(F)(F)F)CC=CCc1ccccc1O2 (mixture of isomers)
[1]; from C=CCc1ccccc1Oc1nc(-c2nnc(C(CC=C)(OCc3ccccc3)C(F)(F)F)o2)c(NC(=O)OC(C)(C)C)cc1C(F)(F)F, rcm bond, Grubbs II, DCE, 5.12 mM, 70.0 °C, 21.0 h
  ring closure, isolated yield: 62%

## C[C@@H]1CCCOCC(OCc2ccccc2)(C(F)(F)F)C2=NN=C(O2)c2nc(c(C(F)(F)F)cc2N(C(=O)OC(C)(C)C)C(=O)OC(C)(C)C)O1 (stereo partly shown)
[1]; from C[C@H](O)CCCOCC(OCc1ccccc1)(c1nnc(-c2nc(O)c(C(F)(F)F)cc2N(C(=O)OC(C)(C)C)C(=O)OC(C)(C)C)o1)C(F)(F)F, ether bond, PPh3/DIAD, toluene, 6.1 mM, 6.0 h
  ring closure, isolated yield: 59%

## C[C@@H]1CC=CCc2cn(Cc3ccccc3)nc2C2=NN=C(O2)c2nc(c(C(F)(F)F)cc2NC(=O)OC(C)(C)C)O1 (mixture of isomers)
[1]; from C=CCc1cn(Cc2ccccc2)nc1-c1nnc(-c2nc(O[C@H](C)CC=C)c(C(F)(F)F)cc2NC(=O)OC(C)(C)C)o1, rcm bond, Zhan-1B, DCE, 2.9 mM, 70.0 °C, 2.0 h
  ring closure, isolated yield: 37%

## CCC1CCC=CC[C@](OCc2ccccc2)(C(F)(F)F)C2=NN=C(O2)c2nc(c(C(F)(F)F)cc2N(C(=O)OC(C)(C)C)C(=O)OC(C)(C)C)O1 (mixture of isomers)
[1]; from C=CCCC(CC)Oc1nc(-c2nnc([C@@](CC=C)(OCc3ccccc3)C(F)(F)F)o2)c(N(C(=O)OC(C)(C)C)C(=O)OC(C)(C)C)cc1C(F)(F)F, rcm bond, Zhan-1B, DCE, 5.4 mM, 70.0 °C
  ring closure, isolated yield: 91%

## CC(C)C1CC=CCC[C@](OCc2ccccc2)(C(F)(F)F)C2=NN=C(O2)c2nc(c(C(F)(F)F)cc2N(C(=O)OC(C)(C)C)C(=O)OC(C)(C)C)O1 (mixture of isomers)
[1]; from C=CCC[C@@](OCc1ccccc1)(c1nnc(-c2nc(OC(CC=C)C(C)C)c(C(F)(F)F)cc2N(C(=O)OC(C)(C)C)C(=O)OC(C)(C)C)o1)C(F)(F)F, rcm bond, Zhan-1B, DCE, 2.09 mM, 60.0 °C, 6.0 h
  ring closure, isolated yield: 61%

## O=[N+]([O-])c1cc(C(F)(F)F)c2nc1-c1nnc(o1)[C@@](OCc1ccccc1)(C(F)(F)F)CCC=CCC(C1CC1)O2 (mixture of isomers)
[1]; from C=CCC[C@@](OCc1ccccc1)(c1nnc(-c2nc(OC(CC=C)C3CC3)c(C(F)(F)F)cc2[N+](=O)[O-])o1)C(F)(F)F, rcm bond, Zhan-1B, DCE, 1.6 mM, 70.0 °C, 2.25 h
  ring closure, isolated yield: 59%

## C[C@@H]1CCC=CC(F)(F)C(OCc2ccccc2)C2=NN=C(O2)c2nc(c(C(F)(F)F)cc2[N+](=O)[O-])O1 (mixture of isomers)
[1]; from C=CCC[C@@H](C)Oc1nc(-c2nnc(C(OCc3ccccc3)C(F)(F)C=C)o2)c([N+](=O)[O-])cc1C(F)(F)F, rcm bond, Grubbs II, DCE, 1.8 mM, 75.0 °C, 0.92 h
  ring closure, isolated yield: 30%

## CC1CC=CCCC(OCc2ccccc2)(C(F)(F)F)C2=NN=C(O2)c2nc(c(C(F)(F)F)cc2NC(=O)OC(C)(C)C)O1 (mixture of isomers)
[1]; from C=CCCC(OCc1ccccc1)(c1nnc(-c2nc(OC(C)CC=C)c(C(F)(F)F)cc2NC(=O)OC(C)(C)C)o1)C(F)(F)F, rcm bond, Zhan-1B, DCE, 4.57 mM, 70.0 °C, 16.0 h
  ring closure, isolated yield: 36%

## C[C@@H]1CC=CCC[C@](OCc2ccccc2)(C(F)(F)F)C2=NN=C(O2)c2nc(c(C(F)F)cc2NC(=O)OC(C)(C)C)O1 (mixture of isomers)
[1]; from C=CCC[C@@](OCc1ccccc1)(c1nnc(-c2nc(O[C@H](C)CC=C)c(C(F)F)cc2NC(=O)OC(C)(C)C)o1)C(F)(F)F, rcm bond, Zhan-1B, DCE, 3.0 mM, 60.0 °C, 2.0 h
  ring closure, isolated yield: 26%

## CC(C)(C)OC(=O)N(C(=O)OC(C)(C)C)c1cc(C(F)(F)F)c2nc1-c1nnc(o1)[C@@](OCc1ccccc1)(C(F)(F)F)CCC=CC[C@H](COCc1ccccc1)O2 (mixture of isomers)
[1]; from C=CCC[C@@](OCc1ccccc1)(c1nnc(-c2nc(O[C@H](CC=C)COCc3ccccc3)c(C(F)(F)F)cc2N(C(=O)OC(C)(C)C)C(=O)OC(C)(C)C)o1)C(F)(F)F, rcm bond, Zhan-1B, DCE, 3.72 mM, 60.0 °C, 2.5 h
  ring closure, isolated yield: 46%

## CC1CCC(O)(C(F)(F)F)C2=NN=C(O2)c2nc(c(C(F)(F)F)cc2N)Oc2cccc1c2 (single isomer, unassigned) [Compound 30, 19-amino-9-methyl-6,17-bis(trifluoromethyl)-15,22-dioxa-3,4,20-triazatetracyclo[14.3.1.12,5.110,14]docosa-1(20),2,4,10(21),11,13,16,18-octaen-6-ol]
[2]
  EC50: < 500 nM

## CC1CCC(O)(C(F)(F)F)C2=NN=C(O2)c2nc(c(C(F)(F)F)cc2N)Oc2cc(F)cc1c2 (single isomer, unassigned) [Compound 33, 19-amino-12-fluoro-9-methyl-6,17-bis(trifluoromethyl)-15,22-dioxa-3,4,20-triazatetracyclo[14.3.1.12,5.110,14]docosa-1(20),2,4,10(21),11,13,16,18-octaen-6-ol]
[2]
  EC50: < 500 nM
